Results published in patent publication US4476299A, “Cyclic polyamino containing compounds having therapeutic effect and the preparation thereof” (priority 1981, dated 1984).
Like-named read-outs stand apart in the source and are kept apart here.

Assays:
[1] = system: P-388 cells; test: Antineoplastic action against implanted P-388 tumor, CDF1 mice, i.p.-i.p. (T/C %); assay type: in vivo; settings: Mus musculus, read-out: T/C %, (Treatment/Control %)
Experimental: (§1) In this animal test, the antineoplastic action against the implanted tumor was examined, in lower animals in vivo, in repsect to the compounds according to the present invention, by using CDF1 mice.
To the peritoneal cavity of each group of mice consisting of six CDF1 mice per group, 10^6 /0.1 ml of P-388 cells or 10^5 /0.1 ml of L-1210 cells were implanted. […] While to the control groups of CDF1 mice, P-388 and L-1210 cells were implanted in the same manner and they were bred without administration of the compounds. […]

[2] = system: B-16 melanoma; test: Antineoplastic action against B-16 melanoma, i.p.-i.p. (T/C %); assay type: in vivo, mice; settings: in words
Description: as §1
(§2) As the screening test for confirming antineoplasticity of certain compound, it is known in the art that there are two kinds of tests, one being "in vitro" test wherein carcinoma cells in propagation in a test tube are used, the other being "in vivo" test wherein lower animals implanted with carcinoma cells are used. In Japan. the "in vivo" test is usually carried out by using Ehrlich tumor, L-1210 cells, sarcoma 180 cells, Yoshida sarcoma or ascites-liver tumor as ascitic tumor and immobilized carcinoma mentioned above as fixed carcinoma. Recently, a new method for confirming the antineoplasticity has been developed, in which lymphocytic leukemia cells P-388 are used. It is known that P-388 has more strong sensitivity than L-1210. As fixed carcinoma, there may be mentioned, for example Lewis lung cancer B-16 melanoma, MM2, MOPC 104E, Colon 26, MH 134, C-1498 and the like.
(§3) The new compounds of the present invention were confirmed to be effective to the P-388 cells in the light of the screening test's results hereinbefore described.

[3] = system: MM2; test: Antineoplastic action against MM2 tumor, i.p.-i.p. (T/C %); assay type: in vivo, mice; settings: in words
Description: as §1, §2, §3

[4] = ip, Table 6, P388, dose 0.05 mg/kg, i.p.
[5] = ip, Table 6, P388, dose 0.5 mg/kg, i.p.
[6] = ip, Table 6, P388, dose 2 mg/kg, i.p.

| SMILES | response vs control in vivo at 0.05 mg/kg ([1]; P388, ip) [%] | response vs control in vivo at 0.5 mg/kg ([1]; P388, ip) [%] | response vs control in vivo at 2 mg/kg ([1]; P388, ip) [%] | response vs control in vivo at 10 mg/kg ([1]; P388, ip) [%] | further results |
| --- | --- | --- | --- | --- | --- |
| CCCC(C)C(=O)Oc1ccc2cc1Oc1ccc(cc1)CC1C(=O)N(C)C(C2)C(=O)NC(C)C(=O)NC(C)C(=O)N(C)C(Cc2ccc(OC)cc2)C(=O)NC(C)C(=O)N1C (centres unmarked) [Ex. 43] | 117 | 142 | 154 |  |  |
| COc1ccc(CC2C(=O)NC(C)C(=O)N(C)C3Cc4ccc(cc4)Oc4cc(ccc4OC4CCCCO4)CC(C(=O)NC(C)C(=O)NC(C)C(=O)N2C)N(C)C3=O)cc1 (centres unmarked) [Ex. 20, tetrahydropyranylether of TPC-A] | 138 | 164 | 121 |  |  |
| CCCCCCCOc1ccc2cc1Oc1ccc(cc1)CC1C(=O)N(C)C(C2)C(=O)NC(C)C(=O)NC(C)C(=O)N(C)C(Cc2ccc(OC)cc2)C(=O)NC(C)C(=O)N1C (centres unmarked) [Ex. 8] | 116 | 145 | 150 |  | response vs control in vivo at 4 mg/kg ([1]; P388, ip): 164% |
| CCCC(=O)Oc1ccc2cc1Oc1ccc(cc1)CC1C(=O)N(C)C(C2)C(=O)NC(C)C(=O)NC(C)C(=O)N(C)C(Cc2ccc(OC)cc2)C(=O)NC(C)C(=O)N1C (centres unmarked) [Ex. 24] | 125 | 144 | 156 | 170 |  |
| CCCC=CC(=O)Oc1ccc2cc1Oc1ccc(cc1)CC1C(=O)N(C)C(C2)C(=O)NC(C)C(=O)NC(C)C(=O)N(C)C(Cc2ccc(OC)cc2)C(=O)NC(C)C(=O)N1C (centres unmarked) [Ex. 44] | 117 | 150 | 165 |  |  |
| CCCCC(=O)Oc1ccc2cc1Oc1ccc(cc1)CC1C(=O)N(C)C(C2)C(=O)NC(C)C(=O)NC(C)C(=O)N(C)C(Cc2ccc(OC)cc2)C(=O)NC(C)C(=O)N1C (centres unmarked) [Ex. 27] | 118 | 150 | 158 | 172 |  |
| CCC(C)CC(=O)Oc1ccc2cc1Oc1ccc(cc1)CC1C(=O)N(C)C(C2)C(=O)NC(C)C(=O)NC(C)C(=O)N(C)C(Cc2ccc(OC)cc2)C(=O)NC(C)C(=O)N1C (centres unmarked) [Ex. 42] | 115 | 140 | 159 |  |  |
| COc1ccc(CC2C(=O)NC(C)C(=O)N(C)C3Cc4ccc(cc4)Oc4cc(ccc4OC(=O)C(C)C)CC(C(=O)NC(C)C(=O)NC(C)C(=O)N2C)N(C)C3=O)cc1 (centres unmarked) [Ex. 25] | 124 | 151 | 156 | 184 |  |
| CCC(=O)Oc1ccc2cc1Oc1ccc(cc1)CC1C(=O)N(C)C(C2)C(=O)NC(C)C(=O)NC(C)C(=O)N(C)C(Cc2ccc(OC)cc2)C(=O)NC(C)C(=O)N1C (centres unmarked) [Ex. 23] | 129 | 145 | 164 | 175 |  |
| CCCCCOc1ccc2cc1Oc1ccc(cc1)CC1C(=O)N(C)C(C2)C(=O)NC(C)C(=O)NC(C)C(=O)N(C)C(Cc2ccc(OC)cc2)C(=O)NC(C)C(=O)N1C (centres unmarked) [Ex. 7] | 122 | 143 | 165 |  |  |
| CCOC(=O)CCCOc1ccc2cc1Oc1ccc(cc1)CC1C(=O)N(C)C(C2)C(=O)NC(C)C(=O)NC(C)C(=O)N(C)C(Cc2ccc(OC)cc2)C(=O)NC(C)C(=O)N1C (centres unmarked) [Ex. 19(2), ethoxycarbonylpropylether (2) of TPC-A] | 114 | 140 | 142 |  | response vs control in vivo at 4 mg/kg ([1]; P388, ip): 153% |
| CCCCCCCCCC(=O)Oc1ccc2cc1Oc1ccc(cc1)CC1C(=O)N(C)C(C2)C(=O)NC(C)C(=O)NC(C)C(=O)N(C)C(Cc2ccc(OC)cc2)C(=O)NC(C)C(=O)N1C (centres unmarked) [Ex. 30] | 122 | 146 | 152 | 151 | effective against B-16 melanoma [2]: effective against B-16 melanoma; effective against MM2 [3]: effective |
| COc1ccc(CC2C(=O)NC(C)C(=O)N(C)C3Cc4ccc(cc4)Oc4cc(ccc4OC(=O)c4ccccc4)CC(C(=O)NC(C)C(=O)NC(C)C(=O)N2C)N(C)C3=O)cc1 (centres unmarked) [Ex. 32] | 128 | 186 | 176 | 183 |  |
| COc1ccc(CC2C(=O)NC(C)C(=O)N(C)C3Cc4ccc(cc4)Oc4cc(ccc4OC4CCCCC4)CC(C(=O)NC(C)C(=O)NC(C)C(=O)N2C)N(C)C3=O)cc1 (centres unmarked) [Ex. 16] | 126 | 162 | 164 |  |  |
| CCC=CCC(=O)Oc1ccc2cc1Oc1ccc(cc1)CC1C(=O)N(C)C(C2)C(=O)NC(C)C(=O)NC(C)C(=O)N(C)C(Cc2ccc(OC)cc2)C(=O)NC(C)C(=O)N1C (centres unmarked) [Ex. 45] |  |  |  |  | response vs control in vivo at 0.05 mg/kg [1, 4]: 122%; response vs control in vivo at 0.5 mg/kg [1, 5]: 145%; response vs control in vivo at 2 mg/kg [1, 6]: 162% |
| CCCCCCC(=O)Oc1ccc2cc1Oc1ccc(cc1)CC1C(=O)N(C)C(C2)C(=O)NC(C)C(=O)NC(C)C(=O)N(C)C(Cc2ccc(OC)cc2)C(=O)NC(C)C(=O)N1C (centres unmarked) [Ex. 28] | 114 | 144 | 150 |  |  |
| CCOc1ccc2cc1Oc1ccc(cc1)CC1C(=O)N(C)C(C2)C(=O)NC(C)C(=O)NC(C)C(=O)N(C)C(Cc2ccc(OC)cc2)C(=O)NC(C)C(=O)N1C (centres unmarked) [Ex. 3] | 137 | 165 | 162 |  |  |
| CCCCCCCCCOc1ccc2cc1Oc1ccc(cc1)CC1C(=O)N(C)C(C2)C(=O)NC(C)C(=O)NC(C)C(=O)N(C)C(Cc2ccc(OC)cc2)C(=O)NC(C)C(=O)N1C (centres unmarked) [Ex. 10] |  |  |  |  | response vs control in vivo at 0.05 mg/kg [1, 4]: 112%; response vs control in vivo at 0.5 mg/kg [1, 5]: 142%; response vs control in vivo at 2 mg/kg [1, 6]: 150%; response vs control in vivo at 4 mg/kg ([1]; ip, Table 6, P388, dose 4 mg/kg, i.p.): 155% |
| CC=CC(=O)Oc1ccc2cc1Oc1ccc(cc1)CC1C(=O)N(C)C(C2)C(=O)NC(C)C(=O)NC(C)C(=O)N(C)C(Cc2ccc(OC)cc2)C(=O)NC(C)C(=O)N1C (centres unmarked) [Ex. 26] | 124 | 148 | 162 | 187 |  |
| CCCCCCCC(=O)Oc1ccc2cc1Oc1ccc(cc1)CC1C(=O)N(C)C(C2)C(=O)NC(C)C(=O)NC(C)C(=O)N(C)C(Cc2ccc(OC)cc2)C(=O)NC(C)C(=O)N1C (centres unmarked) [Ex. 29] | 127 | 147 | 167 | 169 |  |
| COc1ccc(CC2C(=O)NC(C)C(=O)N(C)C3Cc4ccc(cc4)Oc4cc(ccc4OC(C)C)CC(C(=O)NC(C)C(=O)NC(C)C(=O)N2C)N(C)C3=O)cc1 (centres unmarked) [Ex. 5] | 142 | 175 | 105 |  |  |
| CCCCCCCCOc1ccc2cc1Oc1ccc(cc1)CC1C(=O)N(C)C(C2)C(=O)NC(C)C(=O)NC(C)C(=O)N(C)C(Cc2ccc(OC)cc2)C(=O)NC(C)C(=O)N1C (centres unmarked) [Ex. 9] | 136 | 147 | 163 |  | response vs control in vivo at 4 mg/kg ([1]; P388, ip): 152% |
| COc1ccc(CC2C(=O)NC(C)C(=O)N(C)C3Cc4ccc(cc4)Oc4cc(ccc4OC(=O)Cc4ccccc4)CC(C(=O)NC(C)C(=O)NC(C)C(=O)N2C)N(C)C3=O)cc1 (centres unmarked) [Ex. 41] |  |  |  |  | response vs control in vivo at 0.05 mg/kg [1, 4]: 118%; response vs control in vivo at 0.5 mg/kg [1, 5]: 147%; response vs control in vivo at 2 mg/kg [1, 6]: 159% |
| COc1ccc(CC2C(=O)NC(C)C(=O)N(C)C3Cc4ccc(cc4)Oc4cc(ccc4OC(=O)CCC(C)C)CC(C(=O)NC(C)C(=O)NC(C)C(=O)N2C)N(C)C3=O)cc1 (centres unmarked) [Ex. 40, 4-methyl valerate] | 112 | 134 | 152 |  |  |
